Holding throughout (experiment): growth of human tumour cells (NCI), 48 h
Assay [1] deals with LOX IMVI.
For assay [2], the system named is T47D.
Assay [3] concerns HL-60.
Assay [4] relates to M14.
The subject of assay [5] is NCI-H23.
Assay [6] has as its system MDA-MB-435.
For assay [7], the system named is TK-10.
Assay [8] has as its system NCI-H226.
The test system of assay [9] is HCC 2998.
In assay [10] the test system is OVCAR-4.
Assay [11] concerns DU-145.
Assay [12] deals with CCRF-CEM.
Assay [13] deals with ACHN.
Assay [14] deals with NCI/ADR-RES.
For assay [15], the system named is 786-0.
In assay [16] the test system is U-251.
Assay [17] concerns SN12C.
Assay [18] concerns HOP-92.
The subject of assay [19] is UACC-62.
Assay [20] relates to SF-539.

Experimental findings from ChEMBL document CHEMBL1201862, “PubChem BioAssay data set” (2004) are described below.

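Cultured in 96-well plates, cells were exposed to test compound for 48 hours across five concentrations. GI50 is the concentration that inhibits growth by half.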 Activity calls are given as the source filed them. Rule as the data show it: active = GI50 up to about 1.1 µM and inactive = higher.

In the case of `C[C@]12CC[C@@H]3c4cc(OCC(F)(F)F)c(O)cc4CC[C@H]3[C@@H]1CC[C@@H]2O`, the GI50 in [1] is 2.94 µM (inactive); in [2] it was 5.41 µM (inactive); in assay [3], 0.403 µM (active); in assay [4], 1.52 µM (inactive); in assay [5], 4.75 µM (inactive); in assay [6], 0.284 µM (active). The GI50 is 12 µM (inactive) in [7]; 7.05 µM (inactive) in assay [8]; 5.93 µM (inactive) in assay [9]; 17.9 µM (inactive) in assay [10]; 6.3 µM (inactive) in assay [11]; 1.51 µM (inactive) in assay [12]. Also, the GI50 in [13] was 7.74 µM (inactive); in [14] it was 2.24 µM (inactive); in assay [15], 3.24 µM (inactive); in [16], 2.22 µM (inactive); in assay [17], 1.86 µM (inactive); in assay [18], 9.31 µM (inactive). Moreover, the GI50 in assay [19] was 2.32 µM (inactive); in [20] it was 1.38 µM (inactive).

For the compound `O=C1Cc2c(-c3ccc(Cl)cc3)cc(-c3ccccc3)nc2-c2ccccc2N1`, the GI50 in assay [1] is 6.56 µM (inactive); in [2], 2.66 µM (inactive); in [3] it was 10.7 µM (inactive); in assay [4] it was 11.6 µM (inactive); in assay [5], 10.5 µM (inactive); in assay [6] it was 7.76 µM (inactive). Besides, the GI50 is 6.07 µM (inactive) in assay [7]; 10.8 µM (inactive) in [8]; 4.06 µM (inactive) in [9]; 6.62 µM (inactive) in assay [10]; 8.18 µM (inactive) in assay [11]; 6.35 µM (inactive) in [12]. Besides, the GI50 in assay [13] is 5.09 µM (inactive); in assay [14], 6.19 µM (inactive); in assay [15], 2.03 µM (inactive); in [16], 3.08 µM (inactive); in assay [17], 3.71 µM (inactive); in [18], 2.4 µM (inactive). The GI50 in assay [19] is 11.9 µM (inactive); in assay [20], 8.87 µM (inactive).

`CC(C)(C)OC(=O)NCCNC(=O)CN(CC(=O)O)C1CCCCC1N(CC(=O)O)CC(=O)O` (stereo not given): the GI50 in assay [1], in assay [2], in assay [3], in [4], in [5] and in [6] was > 100 µM (inactive) each time. In addition, the GI50 in assay [7], in assay [8], in assay [9], in assay [10], in assay [11] and in [12] was > 100 µM (inactive) each time. Moreover, the GI50 in assay [13], in [14], in assay [15], in [16], in [17] and in assay [18] was > 100 µM (inactive) in each case. Also, the GI50 in [19] and in assay [20] was > 100 µM (inactive) in each case.

In the case of `COc1cc(/C=N/n2c(-c3ccccc3)nn(C(C)=O)c2=O)cc(OC)c1OC`, the GI50 in assay [1] was 2.72 µM (inactive); in assay [2] it was 8.02 µM (inactive); in assay [3] it was 0.745 µM (active); in [4] it was 2.14 µM (inactive); in assay [5] it was 4.07 µM (inactive); in [6], 0.19 µM (active). Moreover, the GI50 was 3.85 µM (inactive) in assay [7]; 18.5 µM (inactive) in assay [8]; 0.748 µM (active) in [9]; 9.91 µM (inactive) in assay [10]; 4.46 µM (inactive) in [11]; 2.23 µM (inactive) in assay [12]. In addition, the GI50 in [13] was 6 µM (inactive); in [14] it was 1.25 µM (inactive); in assay [15], 4.36 µM (inactive); in assay [16], 3 µM (inactive); in assay [17], 5.33 µM (inactive); in assay [18], > 33.9 µM (inactive). In addition, the GI50 in assay [19] is 1.92 µM (inactive); in assay [20], 1.66 µM (inactive).

Consider `N#Cc1sc2c(c1OC(=O)c1ccc(Cl)cc1Cl)c(=O)n(-c1ccccc1)c(=S)n2-c1ccccc1`, for which the GI50 in assay [1] was 19.2 µM (inactive); in assay [2], 26.6 µM (inactive); in assay [3] it was 19.6 µM (inactive); in [4], 18.2 µM (inactive); in assay [5] it was 18.8 µM (inactive); in [6], 19.7 µM (inactive). Also, the GI50 in assay [7] was 33.6 µM (inactive); in assay [8] it was 23.8 µM (inactive); in assay [9] it was 29.2 µM (inactive); in assay [10] it was 21.5 µM (inactive); in [11], 36.1 µM (inactive); in [12] it was 4.85 µM (inactive). Besides, the GI50 was 29 µM (inactive) in [13]; 16.8 µM (inactive) in assay [14]; 26 µM (inactive) in assay [15]; 15.4 µM (inactive) in assay [16]; 21.8 µM (inactive) in assay [17]; 20.2 µM (inactive) in assay [18]. Besides, the GI50 in assay [19] is 18.4 µM (inactive); in assay [20], 18.2 µM (inactive).

As for `C#CC(O)/C=C/CCCCCCC#CC/C=C\CC#CCCCCCC/C=C/C(O)C#C` (stereo not given), the GI50 in assay [1] is 0.0104 µM (active); in assay [2] it was 1.4 µM (inactive); in assay [3] it was 1.77 µM (inactive); in assay [4], 1.03 µM (active); in assay [5], 0.701 µM (active); in assay [6], 2.34 µM (inactive). In addition, the GI50 is 2.99 µM (inactive) in assay [7]; 5.32 µM (inactive) in assay [8]; 1.8 µM (inactive) in [9]; 2.57 µM (inactive) in assay [10]; 3.01 µM (inactive) in assay [11]; 0.255 µM (active) in assay [12]. Also, the GI50 was 3.9 µM (inactive) in assay [13]; 2.55 µM (inactive) in assay [14]; 2.09 µM (inactive) in assay [15]; 12.4 µM (inactive) in assay [16]; 1.66 µM (inactive) in assay [17]; 2.4 µM (inactive) in [18]. The GI50 in assay [19] was 2.64 µM (inactive); in assay [20], 24.5 µM (inactive).

For the compound `O=C1CSC(c2ccccc2O)N1c1ccc(Oc2ccc(Cl)cc2)c(Cl)c1` (stereo not given), the GI50 was 16.6 µM (inactive) in [1]; 11.7 µM (inactive) in [2]; 16.6 µM (inactive) in assay [3]; 29.8 µM (inactive) in [4]; 18.1 µM (inactive) in [5]; 21.5 µM (inactive) in assay [6]. In addition, the GI50 is 36.1 µM (inactive) in assay [7]; 30.8 µM (inactive) in assay [8]; 17.7 µM (inactive) in assay [9]; 20.7 µM (inactive) in assay [10]; 21.1 µM (inactive) in assay [11]; 17.6 µM (inactive) in assay [12]. Further, the GI50 is 28.2 µM (inactive) in assay [13]; 20.6 µM (inactive) in assay [14]; 18.8 µM (inactive) in assay [15]; 17.3 µM (inactive) in [16]; 22.1 µM (inactive) in assay [17]; 18.7 µM (inactive) in assay [18]. The figures for the GI50 in [19] and in assay [20] were 16.4 µM (inactive) and 15.7 µM (inactive), respectively.

`COc1ccc(NC(=O)CC(=O)N2N=C(N3CCCCC3)CC2c2ccccc2)cc1` (stereo not given): the GI50 in [1], in assay [2], in assay [3], in assay [4], in assay [5] and in assay [6] was > 100 µM (inactive) each time. In addition, the GI50 in [7], in assay [8], in assay [9], in assay [10], in [11] and in assay [12] was > 100 µM (inactive) in each case. Moreover, the GI50 in assay [13] is > 100 µM (inactive); in [14] it was > 100 µM (inactive); in assay [15], > 100 µM (inactive); in assay [16], > 100 µM (inactive); in assay [17], > 100 µM (inactive); in assay [18], 99.5 µM (inactive). Further, the GI50 in assay [19] and in [20] was > 100 µM (inactive) in each case.

For the compound `CC[S+]([O-])c1c2cc(OC)ccc2nc2ccc(OC)cc12` (stereo not given), the GI50 in assay [1] was 2.58 µM (inactive); in [2], 2.62 µM (inactive); in [3] it was 4.99 µM (inactive); in assay [4] it was 10.2 µM (inactive); in assay [5], 6.05 µM (inactive); in assay [6], 8.85 µM (inactive). Moreover, the GI50 in assay [7] is 5.38 µM (inactive); in assay [8], 21.8 µM (inactive); in assay [9], 16.6 µM (inactive); in [10], 17 µM (inactive); in [11], 2.59 µM (inactive); in assay [12], 3.79 µM (inactive). Further, the GI50 in assay [13] was 4.79 µM (inactive); in assay [14], 20.4 µM (inactive); in [15], 2.56 µM (inactive); in assay [16], 16.7 µM (inactive); in assay [17], 4.58 µM (inactive); in assay [18] it was 7.16 µM (inactive). In addition, the GI50 in assay [19] is 16.9 µM (inactive); in [20], 6.79 µM (inactive).

Take `Cc1ccc(C(=O)/C=C2\Nc3ccccc3SC2=O)c(C)c1`: the GI50 in [1] is 37.4 µM (inactive); in [2], 61.9 µM (inactive); in assay [3] it was 26.9 µM (inactive); in assay [4], 62.1 µM (inactive); in assay [5] it was 36.9 µM (inactive); in [6], 56.2 µM (inactive). Besides, the GI50 in assay [7] was > 100 µM (inactive); in assay [8] it was 30.7 µM (inactive); in assay [9] it was 59.3 µM (inactive); in assay [10] it was 26.5 µM (inactive); in assay [11], 75.7 µM (inactive); in assay [12] it was 36.3 µM (inactive). Further, the GI50 in assay [13] was 28.6 µM (inactive); in assay [14] it was 42.3 µM (inactive); in assay [15], 26.2 µM (inactive); in [16], 44.9 µM (inactive); in assay [17], 40.1 µM (inactive); in [18], 23.4 µM (inactive). Also, the GI50 in [19] is 32.7 µM (inactive); in [20], 43 µM (inactive).
